Reference: patent US9296741B2, “Bromodomain inhibitors” (priority 2012, dated 2016)
Read-outs that look alike come from different tables or passages of the source.

Columns and labels:
[1] = tested on: OPM-2 human multiple myeloma xenograft tumors; assay: animal or person; conditions: Mus musculus; for change in vivo at 1 mg/kg / inhibition in vivo at 1 mg/kg: 1 mg/kg/day; for change in vivo at 3 mg/kg / inhibition in vivo at 3 mg/kg: 3 mg/kg/day
[2] = molecular target: human BRD4 second bromodomain (BDII_E352-M457) (Homo sapiens (Human), UniProt O60885); assay: TR-FRET bromodomain binding assay, BRD4 second bromodomain
[3] = molecular target: human BRD4 first bromodomain (BDI_K57-E168) (Homo sapiens (Human), UniProt O60885); assay: TR-FRET bromodomain binding assay, BRD4 first bromodomain
[4] = Mouse liver microsome stability assay; assay type: in vitro ADME; conditions: male, CD1, mouse, microsomes, pH 7.4
[5] = Rat liver microsome stability assay; assay type: in vitro ADME; conditions: rat liver microsomes (male Sprague-Dawley), 0.5 μM test compound, 0.25 mg/mL microsomal protein, pH 7.4, 37° C.; read-out: Stability in rat liver microsomes (t1/2 in minutes)
[6] = tested on: breast cancer cell line MX-1; assay: MX-1 cell line proliferation assay; assay type: cell-based, human; conditions: Homo sapiens, MX1, 72 h; MX-1 cells, 3-day proliferation, Cell Titer Glo; read-out: Cellular proliferation: EC50
[7] = Human liver microsome stability assay; assay type: in vitro ADME; conditions: both sexes, human, microsomes, pH 7.4
[8] = tested on: LPS induced IL-6 production; assay: LPS (lipopolysaccharide) induced IL-6 production mouse assay; assay type: in vivo; conditions: Mus musculus, read-out: Inhibition of LPS induced IL-6 production in Mice, % inhibition at 3 mg/kg; 3 mg/kg oral, 1 h before LPS; serum IL-6 2 h after LPS
[9] = OPM-2, po, read-out: % TGD (tumor growth delay), OPM-2, PO, QDx21, vehicle A
[10] = OPM-2, po, read-out: % TGI (tumor growth inhibition), OPM-2, PO, QDx21, vehicle A

Row | SMILES | Ki [2] | Ki [3] | half-life at 0.5 μM [4] | half-life at 0.5 μM [5] | EC50 [6] | half-life at 0.5 μM [7] | change in vivo at 1 mg/kg ([1]; OPM-2, iv, read-out: % TGD (tumor growth delay), OPM-2, IV, Q4Dx3, vehicle B) | inhibition in vivo at 1 mg/kg ([1]; OPM-2, iv, read-out: % TGI (tumor growth inhibition), OPM-2, IV, Q4Dx3, vehicle B) | change in vivo at 1 mg/kg [1, 9] | change in vivo at 3 mg/kg [1, 9] | inhibition in vivo at 1 mg/kg [1, 10] | inhibition in vivo at 3 mg/kg [1, 10] | inhibition in vivo at 3 mg/kg [8] | change in vivo at 6 mg/kg ([1]; OPM-2, po, read-out: % TGD (tumor growth delay), OPM-2, 6 mg/kg/day, PO, QDx21, vehicle A) | change in vivo at 20 mg/kg ([1]; OPM-2, po, read-out: % TGD (tumor growth delay), OPM-2, 20 mg/kg/day, PO, QDx21, vehicle A) | inhibition in vivo at 6 mg/kg ([1]; OPM-2, po, read-out: % TGI (tumor growth inhibition), OPM-2, 6 mg/kg/day, PO, QDx21, vehicle A) | inhibition in vivo at 20 mg/kg ([1]; OPM-2, po, read-out: % TGI (tumor growth inhibition), OPM-2, 20 mg/kg/day, PO, QDx21, vehicle A) | change in vivo at 1.25 mg/kg ([1]; OPM-2, po, read-out: % TGD (tumor growth delay), OPM-2, 1.25 mg/kg/day, PO, QDx21, vehicle A) | inhibition in vivo at 1.25 mg/kg ([1]; OPM-2, po, read-out: % TGI (tumor growth inhibition), OPM-2, 1.25 mg/kg/day, PO, QDx21, vehicle A)
1 | CC(C)C[C@H](NC(=O)[C@H](Cc1ccccc1)NC(=O)c1cnccn1)B(O)O [Bortezomib] | – | – | – | – | – | – | 93% | 80% | – | – | – | – | – | – | – | – | – | – | –
2 | Cn1cc(-c2cc(S(N)(=O)=O)ccc2Oc2ccc(F)cc2F)c2cc[nH]c2c1=O [Example 146, 4-(2,4-difluorophenoxy)-3-(6-methyl-7-oxo-6,7-dihydro-1H-pyrrolo[2,3-c]pyridin-4-yl)benzenesulfonamide] | 1.9 nM | 7.5 nM | 55 min | 52 min | 60.9 nM | > 120 min | – | – | 35% | 78% | 39% | 76% | 80% | – | – | – | – | – | –
3 | Cn1cc(-c2cc(S(C)(=O)=O)ccc2OCC2CC2)c2cc[nH]c2c1=O [Example 158, 4-[2-(cyclopropylmethoxy)-5-(methylsulfonyl)phenyl]-6-methyl-1,6-dihydro-7H-pyrrolo[2,3-c]pyridin-7-one] | 9.7 nM | 4.1 nM | > 120 min | > 120 min | 24.3 nM | > 120 min | – | – | – | – | – | – | – | 34% | 72% | 53% | 78% | – | –
4 | CCS(=O)(=O)c1ccc(OC2CCC(F)(F)CC2)c(-c2cn(C)c(=O)c3[nH]ccc23)c1 [Example 169, 4-{2-[(4,4-difluorocyclohexyl)oxy]-5-(ethylsulfonyl)phenyl}-6-methyl-1,6-dihydro-7H-pyrrolo[2,3-c]pyridin-7-one] | 0.86 nM | 0.88 nM | 38 min | 34 min | 5.3 nM | 86 min | – | – | – | 77% | – | 69% | 67% | – | – | – | – | – | –
5 | CCS(=O)(=O)c1ccc(NCC2CC2)c(-c2cn(C)c(=O)c3[nH]ccc23)c1 [Example 200, 4-{2-[(cyclopropylmethyl)amino]-5-(ethylsulfonyl)phenyl}-6-methyl-1,6-dihydro-7H-pyrrolo[2,3-c]pyridin-7-one] | 1.1 nM | 0.86 nM | > 120 min | 31 min | 11.3 nM | > 120 min | – | – | 44% | 82% | 50% | 80% | 75% | – | – | – | – | – | –
6 | CNS(=O)(=O)c1ccc(OCC2CC2)c(-c2cn(C)c(=O)c3[nH]ccc23)c1 [Example 250, 4-(cyclopropylmethoxy)-N-methyl-3-(6-methyl-7-oxo-6,7-dihydro-1H-pyrrolo[2,3-c]pyridin-4-yl)benzenesulfonamide] | 1.5 nM | 1.5 nM | 37 min | 36 min | 18 nM | 56 min | – | – | – | 29% | – | 42% | – | – | – | – | – | – | –
7 | CC(O)c1cc2c(-c3cc(S(C)(=O)=O)ccc3Oc3ccc(F)cc3F)cn(C)c(=O)c2[nH]1 (stereo not drawn) [Example 278, 4-[2-(2,4-difluorophenoxy)-5-(methylsulfonyl)phenyl]-2-(1-hydroxyethyl)-6-methyl-1,6-dihydro-7H-pyrrolo[2,3-c]pyridin-7-one] | 11.2 nM | 12.1 nM | > 120 min | > 120 min | 135 nM | > 120 min | – | – | – | – | – | – | 51% | – | – | – | – | – | –

Further lines, with some results ahead:

Row | Ki [2] | Ki [3] | half-life at 0.5 μM [4] | half-life at 0.5 μM [5] | EC50 [6] | half-life at 0.5 μM [7] | SMILES | change in vivo at 1 mg/kg ([1]; OPM-2, iv, read-out: % TGD (tumor growth delay), OPM-2, IV, Q4Dx3, vehicle B) | inhibition in vivo at 1 mg/kg ([1]; OPM-2, iv, read-out: % TGI (tumor growth inhibition), OPM-2, IV, Q4Dx3, vehicle B) | change in vivo at 1 mg/kg [1, 9] | change in vivo at 3 mg/kg [1, 9] | inhibition in vivo at 1 mg/kg [1, 10] | inhibition in vivo at 3 mg/kg [1, 10] | inhibition in vivo at 3 mg/kg [8] | change in vivo at 6 mg/kg ([1]; OPM-2, po, read-out: % TGD (tumor growth delay), OPM-2, 6 mg/kg/day, PO, QDx21, vehicle A) | change in vivo at 20 mg/kg ([1]; OPM-2, po, read-out: % TGD (tumor growth delay), OPM-2, 20 mg/kg/day, PO, QDx21, vehicle A) | inhibition in vivo at 6 mg/kg ([1]; OPM-2, po, read-out: % TGI (tumor growth inhibition), OPM-2, 6 mg/kg/day, PO, QDx21, vehicle A) | inhibition in vivo at 20 mg/kg ([1]; OPM-2, po, read-out: % TGI (tumor growth inhibition), OPM-2, 20 mg/kg/day, PO, QDx21, vehicle A) | change in vivo at 1.25 mg/kg ([1]; OPM-2, po, read-out: % TGD (tumor growth delay), OPM-2, 1.25 mg/kg/day, PO, QDx21, vehicle A) | inhibition in vivo at 1.25 mg/kg ([1]; OPM-2, po, read-out: % TGI (tumor growth inhibition), OPM-2, 1.25 mg/kg/day, PO, QDx21, vehicle A)
8 | 5.4 nM | 12.1 nM | 11 min | 19 min | 74.6 nM | 10 min | Cn1cc(-c2cc(S(=O)(=O)N3CCOCC3)ccc2OCC2CC2)c2cc[nH]c2c1=O [Example 286, 4-[2-(cyclopropylmethoxy)-5-(morpholin-4-ylsulfonyl)phenyl]-6-methyl-1,6-dihydro-7H-pyrrolo[2,3-c]pyridin-7-one] | – | – | – | – | – | – | 57% | – | – | – | – | – | –
9 | 53.9 nM | 71.9 nM | > 120 min | > 120 min | 173 nM | 85 min | Cn1cc(-c2cc(S(C)(=O)=O)cnc2Oc2ccc(F)cc2F)c2cc[nH]c2c1=O [Example 288, 4-[2-(2,4-difluorophenoxy)-5-(methylsulfonyl)pyridin-3-yl]-6-methyl-1,6-dihydro-7H-pyrrolo[2,3-c]pyridin-7-one] | – | – | – | – | – | – | 60% | – | – | – | – | – | –
10 | 1.9 nM | 5 nM | 52 min | 48 min | 36.2 nM | 73 min | Cn1cc(-c2cc(S(=O)(=O)C3CC3)ccc2Oc2ccc(F)cc2F)c2cc[nH]c2c1=O [Example 290, 4-[5-(cyclopropylsulfonyl)-2-(2,4-difluorophenoxy)phenyl]-6-methyl-1,6-dihydro-7H-pyrrolo[2,3-c]pyridin-7-one] | – | – | – | – | – | – | 64% | – | – | – | – | – | –
11 | 21.7 nM | 47.9 nM | > 120 min | > 120 min | 332 nM | > 120 min | CCS(=O)(=O)c1cnc(Oc2ccc(F)cc2F)c(-c2cn(C)c(=O)c3[nH]ccc23)c1 [Example 294, 4-[2-(2,4-difluorophenoxy)-5-(ethylsulfonyl)pyridin-3-yl]-6-methyl-1,6-dihydro-7H-pyrrolo[2,3-c]pyridin-7-one] | – | – | – | – | – | – | 79% | – | – | – | – | – | –
12 | 21.8 nM | 9 nM | 72 min | 65 min | 32.3 nM | > 120 min | CCS(=O)(=O)c1ccc(Oc2ccc(C#N)cc2)c(-c2cn(C)c(=O)c3[nH]ccc23)c1 [Example 304, 4-[4-(ethylsulfonyl)-2-(6-methyl-7-oxo-6,7-dihydro-1H-pyrrolo[2,3-c]pyridin-4-yl)phenoxy]benzonitrile] | – | – | – | – | – | – | 67% | – | – | – | – | – | –
13 | 6.5 nM | 49.9 nM | 16 min | 10 min | 29.3 nM | 20 min | Cn1cc(-c2cc(S(=O)(=O)N3CC(F)(F)C3)ccc2OCC2CC2)c2cc[nH]c2c1=O [Example 308, 4-{2-(cyclopropylmethoxy)-5-[(3,3-difluoroazetidin-1-yl)sulfonyl]phenyl}-6-methyl-1,6-dihydro-7H-pyrrolo[2,3-c]pyridin-7-one] | – | – | – | – | – | – | 48% | – | – | – | – | – | –
14 | 4.5 nM | 14.8 nM | > 120 min | 83 min | 22.4 nM | > 120 min | Cn1cc(-c2cc(CS(C)(=O)=O)cnc2Oc2ccc(F)cc2F)c2cc[nH]c2c1=O [Example 311, 4-{2-(2,4-difluorophenoxy)-5-[(methylsulfonyl)methyl]pyridin-3-yl}-6-methyl-1,6-dihydro-7H-pyrrolo[2,3-c]pyridin-7-one] | – | – | – | – | – | – | 74% | – | – | – | – | 90% | 60%
15 | 32.1 nM | 33.4 nM | > 120 min | 103 min | 34.4 nM | > 120 min | Cn1cc(-c2cc(CS(C)(=O)=O)ccc2Oc2ccc(F)cc2F)c2cn[nH]c2c1=O [Example 321, 4-{2-(2,4-difluorophenoxy)-5-[(methylsulfonyl)methyl]phenyl}-6-methyl-1,6-dihydro-7H-pyrazolo[3,4-c]pyridin-7-one] | – | – | – | – | – | – | 63% | – | – | – | – | – | –
16 | 4.6 nM | 50.9 nM | 28 min | 12 min | 30.6 nM | 29.9 min | CCS(=O)(=O)c1ccc(N2CCCC2)c(-c2cn(C)c(=O)c3[nH]ccc23)c1 [Example 330, 4-[5-(ethylsulfonyl)-2-(pyrrolidin-1-yl)phenyl]-6-methyl-1,6-dihydro-7H-pyrrolo[2,3-c]pyridin-7-one] | – | – | – | – | – | – | 45% | – | – | – | – | – | –
